The results in this text go back to patent US10221426B2, “Constitutively active PYR/PYL receptor proteins for improving plant stress tolerance” (The Regents of the University of California, priority 2009, dated 2019).

As usually defined, the IC50 is the concentration at which inhibition is half-maximal.

This test has as its target T1, HAB1 in the presence of PYR1 (Arabidopsis thaliana, UniProt O49686).
T1 construct: made in house; host or cells: E. coli BL21[DE3]pLysS
T1 sequence (O49686 1-191): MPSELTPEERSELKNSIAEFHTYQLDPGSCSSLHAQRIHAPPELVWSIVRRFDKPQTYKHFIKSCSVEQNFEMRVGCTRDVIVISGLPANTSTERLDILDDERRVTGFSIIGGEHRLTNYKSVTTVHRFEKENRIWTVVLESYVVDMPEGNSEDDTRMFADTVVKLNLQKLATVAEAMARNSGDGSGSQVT
T1 sequence (Q9CAJ0 23-511 partner): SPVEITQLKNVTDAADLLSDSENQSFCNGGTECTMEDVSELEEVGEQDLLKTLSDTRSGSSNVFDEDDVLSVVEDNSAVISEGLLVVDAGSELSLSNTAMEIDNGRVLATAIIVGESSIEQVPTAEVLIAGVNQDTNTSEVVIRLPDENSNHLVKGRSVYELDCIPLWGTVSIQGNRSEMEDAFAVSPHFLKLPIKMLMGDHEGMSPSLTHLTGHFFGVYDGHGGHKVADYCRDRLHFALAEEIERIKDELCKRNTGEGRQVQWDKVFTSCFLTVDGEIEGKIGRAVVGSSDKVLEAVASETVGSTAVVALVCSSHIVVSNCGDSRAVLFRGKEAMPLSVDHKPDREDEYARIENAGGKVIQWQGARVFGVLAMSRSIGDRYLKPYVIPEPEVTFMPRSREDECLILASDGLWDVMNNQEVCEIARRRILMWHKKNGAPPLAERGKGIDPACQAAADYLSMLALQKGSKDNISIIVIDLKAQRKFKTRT
In words: PP2C phosphatase assay (pNPP), GST-HAB1 in the presence of PYR1. The test is classed as biochemical. To be noted: 1 μM GST-HAB1, 1.5 μM 6×His-PYR1, 50 mM pNPP; read-out: IC50 of inhibition of HAB1 phosphatase activity in the presence of PYR1. An excerpt: Since ABI1 and relatives are negative regulators of the ABA signaling pathway, we hypothesized that the function of the ABA-promoted PYR1-PP2C interaction was to inhibit phosphatase activity and remove a negative input into the pathway, which would then promote signaling. To test this hypothesis, we examined the effects of (+)-ABA on PP2C enzyme kinetics using recombinant GST-HAB1, 6×His-PYR1 or 6×His-PYR1^P88S using the phosphatase substrate pNPP. The ORF of Arabidopsis HAB1 was amplified by PCR from a pUni clone obtained from the ABRC and cloned into pGex-2T to create a GST-HAB1 fusion protein. Both constructs were transformed into BL21[DE3]pLysS. For expression, cells harboring pGex-GST-HAB1 were grown overnight in 20 ml LB and then inoculated to 700 ml media containing 1 mM MnCl2 and continued incubation with shaking at RT for 8 hr. Protein expression was then induced by addition of IPTG to final concentration of 0.5 mM, and cells were cultured overnight at RT. […] Immediately after mixing, reactions were monitored for hydrolysis of pNPP at A405 t˜10 second intervals over 20 minutes using a Wallac plate reader. Reaction progressions were plotted, initial velocities calculated and converted to specific activities using a standard curve for 4-nitrophenol made in the same buffer system volumes/plate reader used for enzymatic reaction measurements. […]

As for `CC1=CC(=O)CC(C)(C)C1(O)/C=C/C(C)=C\C(=O)O` (single isomer, unassigned; (+)) [(+)-ABA], the 50% inhibitory concentration (IC50) worked out at 180 nM.
